Values joined by “and” are separate entries in the source; they are usually repeats but may differ in a detail not shown here. Equal values may be shown once. Inconclusive results and toxic doses are left out. Rule for the calls: active = survival T/C of 150% or more; inactive = T/C below 125% in these data.
System: CD2F1 mice, L1210 leukemia ip, survival T/C
Assay: NCI In Vivo Anticancer Drug Screen. Data for tumor model L1210 Leukemia (intraperitoneal) in CD2F1 (CDF1) mice
Conditions: higher = longer survival
How it was run: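 Implant tumor; dose compound or vehicle; measure endpoint in both groups; report treated divided by control.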

[1] = endpoint: mean survival time, dose: 100.0 mg/kg/injection, schedule: Q01DX009 (ip), vehicle: Klucel (hydroxypropylcellulose) (HPC)
[2] = endpoint: mean survival time, dose: 200.0 mg/kg/injection, schedule: Q01DX009 (ip), vehicle: Klucel (hydroxypropylcellulose) (HPC)
[3] = endpoint: mean survival time, dose: 100.0 mg/kg/injection, schedule: Q04DX003 (ip), vehicle: saline with Tween-80
[4] = endpoint: mean survival time, dose: 200.0 mg/kg/injection, schedule: Q04DX003 (ip), vehicle: saline with Tween-80
[5] = endpoint: mean survival time, dose: 400.0 mg/kg/injection, schedule: Q04DX003 (ip), vehicle: saline with Tween-80
[6] = endpoint: mean survival time, dose: 100.0 mg/kg/injection, schedule: Q01DX009 (ip), vehicle: saline
[7] = endpoint: mean survival time, dose: 200.0 mg/kg/injection, schedule: Q01DX009 (ip), vehicle: saline
[8] = endpoint: mean survival time, dose: 50.0 mg/kg/injection, schedule: Q01DX009 (ip), vehicle: saline
[9] = endpoint: mean survival time, dose: 100.0 mg/kg/injection, schedule: Q04DX003 (ip), vehicle: saline
[10] = endpoint: mean survival time, dose: 200.0 mg/kg/injection, schedule: Q04DX003 (ip), vehicle: saline
[11] = endpoint: mean survival time, dose: 25.0 mg/kg/injection, schedule: Q01DX009 (ip), vehicle: saline
[12] = endpoint: mean survival time, dose: 100.0 mg/kg/injection, schedule: Q01DX009 (ip), vehicle: saline with Tween-80
[13] = endpoint: mean survival time, dose: 200.0 mg/kg/injection, schedule: Q01DX009 (ip), vehicle: saline with Tween-80
[14] = endpoint: mean survival time, dose: 400.0 mg/kg/injection, schedule: Q01DX009 (ip), vehicle: saline with Tween-80

Measured: T/C

C1CCC(C2CCCC[N-]2)[N-]C1.[Cl][Pt].[NH-]CC(=O)O (configuration not stated)
inactive: endpoint: median survival time, dose: 10.0 mg/kg/injection, schedule: Q04DX003 (ip), vehicle: saline 101 % of control | endpoint: median survival time, dose: 20.0 mg/kg/injection, schedule: Q04DX003 (ip), vehicle: saline 105 % of control | endpoint: median survival time, dose: 40.0 mg/kg/injection, schedule: Q04DX003 (ip), vehicle: saline 98 % of control | endpoint: median survival time, dose: 80.0 mg/kg/injection, schedule: Q04DX003 (ip), vehicle: saline 95 % of control and 96 % of control | endpoint: median survival time, dose: 160.0 mg/kg/injection, schedule: Q04DX003 (ip), vehicle: saline 90 % of control | endpoint: median survival time, dose: 320.0 mg/kg/injection, schedule: Q04DX003 (ip), vehicle: saline 101 % of control

CC12CCC(C/C1=C\C#N)C(C)(C)O2 (configuration not stated)
inactive: endpoint: mean survival time, dose: 50.0 mg/kg/injection, schedule: Q01DX009 (ip), vehicle: Klucel (hydroxypropylcellulose) (HPC) 97 % of control | [1] 94 % of control | [2] 105 % of control

CCOC(=O)C(Cc1ccc(C)cc1)P(=O)(OCC)OCC (configuration not stated)
inactive: endpoint: mean survival time, dose: 100.0 mg/kg/injection, schedule: Q01DX001 (ip), vehicle: saline 102 % of control | endpoint: mean survival time, dose: 200.0 mg/kg/injection, schedule: Q01DX001 (ip), vehicle: saline 98 % of control | endpoint: mean survival time, dose: 400.0 mg/kg/injection, schedule: Q01DX001 (ip), vehicle: saline 102 % of control

CN(Cc1ccc(Cl)cc1)N=Nc1ccc(C(=O)O)cc1
inactive: endpoint: mean survival time, dose: 7.9 mg/kg/injection, schedule: Q01DX009 (ip), vehicle: other 94 % of control | endpoint: mean survival time, dose: 15.7 mg/kg/injection, schedule: Q01DX009 (ip), vehicle: other 94 % of control | endpoint: mean survival time, dose: 31.3 mg/kg/injection, schedule: Q01DX009 (ip), vehicle: other 105 % of control | endpoint: mean survival time, dose: 62.5 mg/kg/injection, schedule: Q01DX009 (ip), vehicle: other 90 % of control | endpoint: mean survival time, dose: 100.0 mg/kg/injection, schedule: Q01DX009 (ip), vehicle: other 101 % of control | endpoint: mean survival time, dose: 125.0 mg/kg/injection, schedule: Q01DX009 (ip), vehicle: other 97 % of control | endpoint: mean survival time, dose: 200.0 mg/kg/injection, schedule: Q01DX009 (ip), vehicle: other 93 % of control

ClC(Cl)(Cl)c1nc2nccnc2[nH]1
inactive: endpoint: mean survival time, dose: 25.0 mg/kg/injection, schedule: Q01DX009 (ip), vehicle: saline sonified 100 % of control | endpoint: mean survival time, dose: 50.0 mg/kg/injection, schedule: Q01DX009 (ip), vehicle: saline sonified 104 % of control | endpoint: mean survival time, dose: 100.0 mg/kg/injection, schedule: Q01DX009 (ip), vehicle: saline sonified 94 % of control

COC1=CCC23C(=O)C=CC(=O)C2(C1)C(=O)c1ccccc1C3=O (configuration not stated)
inactive: endpoint: median survival time, dose: 3.12 mg/kg/injection, schedule: Q01DX009 (ip), vehicle: saline with Tween-80 102 % of control | endpoint: median survival time, dose: 6.25 mg/kg/injection, schedule: Q01DX009 (ip), vehicle: saline with Tween-80 105 % of control | endpoint: median survival time, dose: 12.5 mg/kg/injection, schedule: Q01DX009 (ip), vehicle: saline with Tween-80 112 % of control | endpoint: median survival time, dose: 25.0 mg/kg/injection, schedule: Q01DX009 (ip), vehicle: saline with Tween-80 104 % of control

CCOC(=O)Nc1cc2c3ccccc3ncc2c2ccccc12
inactive: endpoint: mean survival time, dose: 25.0 mg/kg/injection, schedule: Q04DX003 (ip), vehicle: saline with Tween-80 94 % of control | endpoint: mean survival time, dose: 50.0 mg/kg/injection, schedule: Q04DX003 (ip), vehicle: saline with Tween-80 86 % of control | [3] 87 % of control | [4] 89 % of control | [5] 101 % of control

CC(=O)OCC1OC2OC(C)(C)OC2C2OC(C)(C)OC12 (configuration not stated)
inactive: [3] 104 % of control | [4] 101 % of control | [5] 106 % of control

COc1cc(OC)c(/C=C/c2cc[n+](C)c3ccccc23)c(OC)c1
inactive: endpoint: mean survival time, dose: 1.56 mg/kg/injection, schedule: Q01DX009 (ip), vehicle: saline 106 % of control | endpoint: mean survival time, dose: 1.56 mg/kg/injection, schedule: Q04DX002 (ip), vehicle: saline 100 % of control | endpoint: mean survival time, dose: 3.13 mg/kg/injection, schedule: Q01DX009 (ip), vehicle: saline 109 % of control | endpoint: mean survival time, dose: 3.13 mg/kg/injection, schedule: Q04DX002 (ip), vehicle: saline 98 % of control | endpoint: mean survival time, dose: 6.25 mg/kg/injection, schedule: Q04DX002 (ip), vehicle: saline 88 % of control and 91 % of control

c1ccc2c(c1)[nH]c1nc3ncncc3nc12
inactive: [6] 98 % of control | [7] 104 % of control | endpoint: mean survival time, dose: 400.0 mg/kg/injection, schedule: Q01DX009 (ip), vehicle: saline 112 % of control

O=[N+]([O-])c1c[c]([Hg][Cl])c(O)[c]([Hg][Cl])c1
inactive: endpoint: mean survival time, dose: 12.5 mg/kg/injection, schedule: Q04DX003 (ip), vehicle: saline with Tween-80 93 % of control

COc1ccc(N/C=C/C2=[N+](C)c3ccccc3C2(C)C)c(OC)c1
inactive: [8] 103 % of control | [6] 105 % of control | [9] 89 % of control | [7] 97 % of control | [10] 89 % of control

CCCCCCCCCCCCCCCCOc1ccc(NS(=O)(=O)c2ccc(NC(C)=O)cc2)cc1
inactive: endpoint: mean survival time, dose: 100.0 mg/kg/injection, schedule: Q01DX001 (ip), vehicle: saline with Tween-80 96 % of control | [1] 109 % of control | endpoint: mean survival time, dose: 200.0 mg/kg/injection, schedule: Q01DX001 (ip), vehicle: saline with Tween-80 91 % of control | [2] 103 % of control | endpoint: mean survival time, dose: 400.0 mg/kg/injection, schedule: Q01DX001 (ip), vehicle: saline with Tween-80 93 % of control | endpoint: mean survival time, dose: 400.0 mg/kg/injection, schedule: Q01DX009 (ip), vehicle: Klucel (hydroxypropylcellulose) (HPC) 98 % of control

C1CCc2nnnn2CC1
inactive: endpoint: mean survival time, dose: 12.5 mg/kg/injection, schedule: Q01DX009 (ip), vehicle: saline 98 % of control | [11] 103 % of control | [8] 95 % of control

O=P(O)(O)c1ccccc1 (tested in a mixture with another compound)
inactive: [9] 100 % of control | [10] 91 % of control | endpoint: mean survival time, dose: 400.0 mg/kg/injection, schedule: Q04DX003 (ip), vehicle: saline 95 % of control

COC1(OC)C2C=CC1CC2
inactive: endpoint: mean survival time, dose: 12.5 mg/kg/injection, schedule: Q01DX009 (ip), vehicle: saline with Tween-80 105 % of control | endpoint: mean survival time, dose: 25.0 mg/kg/injection, schedule: Q01DX009 (ip), vehicle: saline with Tween-80 100 % of control | endpoint: mean survival time, dose: 50.0 mg/kg/injection, schedule: Q01DX009 (ip), vehicle: saline with Tween-80 109 % of control | [12] 103 % of control | [13] 103 % of control | [14] 114 % of control

CC(=O)C1CC2c3ccccc3C1c1ccccc12 (configuration not stated)
inactive: [12] 98 % of control | endpoint: mean survival time, dose: 100.0 mg/kg/injection, schedule: Q04DX003 (ip), vehicle: saline sonified 100 % of control | [13] 98 % of control | endpoint: mean survival time, dose: 200.0 mg/kg/injection, schedule: Q04DX003 (ip), vehicle: saline sonified 98 % of control | [14] 95 % of control | endpoint: mean survival time, dose: 400.0 mg/kg/injection, schedule: Q04DX003 (ip), vehicle: saline sonified 91 % of control

CCN(CC)C(=O)c1ccc[n+](CC(=O)Nc2ccccc2)c1
inactive: [11] 108 % of control | [8] 105 % of control | [6] 97 % of control | [9] 104 % of control

O/N=C(/CN1CCOCC1)c1ccccc1
inactive: [12] 97 % of control | [3] 102 % of control | [13] 94 % of control | [4] 96 % of control | [14] 96 % of control | [5] 102 % of control

NNC(=O)C1CC2CCC1C2 (configuration not stated)
inactive: [8] 107 % of control | [6] 109 % of control | [9] 97 % of control | [7] 105 % of control | [10] 114 % of control
